Experimental data from patent US20200305426A1, “BOOSTERS FOR ANTIMICROBIAL, PRESERVATIVE AND BIOCIDAL APPLICATIONS” (EMERALD KALAMA CHEMICAL, LLC, priority 2017, published 2020).

Experiments:
[1] = system: K. aerogenes (ATCC 13048) and P. aeruginosa (ATCC 9027); assay: Challenge test in tryptic soy broth at pH 9.0, log reduction of CFU; assay type: cell-based; conditions: 2.5 wt. % alone; tryptic soy broth pH 9.0; up to one week
Description: FIG. 29 reflects log reduction data for colony forming units (CFU) of microbe strains in tryptic soy broth growth media at pH 9.0 up to 28 days.
FIG. 30 reflects log reduction data for colony forming units (CFU) of microbe strains exposed to benzylamine at 2.5 wt. % in tryptic soy broth at pH 9.0 up to one week.
Strains of K. aerogenes (ATCC 13048) and P. aeruginosa (ATCC 9027) were utilized for testing as they are commonly found in many water-based products, including without limitation cosmetics and coatings. These organisms were challenged into the soy broth using the same methods as in the other examples. Time points were selected based on time points from ASTM 2574, which is a method for evaluating antimicrobial efficacy in waterborne emulsion based paints.

[2] = system: A. brasiliensis, C. albicans, E. coli, P. aeruginosa, and S. aureus; assay: Challenge test (USP-51 / European Pharmacopeia) in tryptic soy broth, log reduction of CFU; assay type: cell-based
[3] = system: S. aureus, E. coli, P. aeruginosa, C. albicans, and A. brasiliensis; assay: Challenge test in skin lotion formulation, European Pharmacopeia criteria; assay type: cell-based; conditions: for European Pharmacopeia 14-day criteria / European Pharmacopeia two-day criteria: skin lotion; for European Pharmacopeia 14-day criteria: 0.25 wt. % booster with 0.5 wt. % sodium benzoate and 0.66 wt. % benzyl alcohol; for European Pharmacopeia two-day criteria: 0.25 wt. % booster with 0.5 wt. % sodium benzoate and 1 wt. % benzyl alcohol; for European Pharmacopeia two-day and 14-day criteria: skin lotion pH 6.5
Description: (§1) For the European Pharmacopeia, a “pass” test for efficacy is a two-log reduction for bacteria after two days, a three-log reduction in bacteria after […], a two-log reduction in mold and yeast at 14 days and no increase at 28 days.
Skin Lotion Formulation Experimental—An exemplary, model skin lotion having a pH of 6.5 as set forth below in Table 1 was prepared for testing. The invention is not limited to use in this specific lotion but was used to illustrate the advantages of the invention.
In this example, 3-phenyl propanol was used to enhance the performance of low concentrations of sodium benzoate and benzyl alcohol. This example evaluated boosting performance of 3-phenyl propanol in a skin lotion formulation having a pH of 6.5, the ingredients of which are listed in Table 1. Each formulation contained 0.25 wt. % of sodium benzoate and 0.25 wt. % of benzyl alcohol.
In this example, EDTA was used to enhance the performance of sodium benzoate and benzyl alcohol in a skin lotion formulation at […], the ingredients of which are set forth in Table 1. Each formulation contained 0.5 wt. % of sodium benzoate and 0.25 wt. % of EDTA with benzyl alcohol varying up to 1 wt. %. The control was comprised of 0.5 wt. % sodium benzoate and 1 wt. % benzyl alcohol without EDTA.
In this example, sodium gluconate was used to enhance the performance of sodium benzoate and benzyl alcohol in a skin lotion formulation at pH 6.5, the ingredients of which are set forth in Table 1. Each formulation contained 0.5 wt. % of sodium benzoate and 0.25 wt. % of sodium gluconate, with benzyl alcohol varying up to 1 wt. %. The control comprised 0.5 wt. % sodium benzoate and 1 wt. % benzyl alcohol without sodium gluconate.
In this example, caprylyl glycol was used to enhance the performance of sodium benzoate and benzyl alcohol in a skin lotion formulation at pH 6.5, the ingredients of which are set forth in Table 1. FIGS. 27 and 28 reflect log reduction data of colony forming units (CFU) of microbe strains exposed to sodium benzoate, benzyl alcohol, and caprylyl glycol concentrations in skin lotion media after two and fourteen days. […] A control was utilized comprising 0.5 wt. % sodium benzoate and 1 wt. % benzyl alcohol without caprylyl glycol.

Pseudomonas aeruginosa = conditions: tryptic soy broth pH 6.5; with 0.25 wt. % sodium benzoate and 0.25 wt. % benzyl alcohol; two days
Description: (§2) Challenge Testing Methodology—Experimental—Several industry standard testing methodologies exist for evaluating antimicrobial efficacy. Two common examples of such standards include United States Pharmacopeia (USP 51) and European Pharmacopeia (EP) testing methodology. These methodologies are particularly useful in that they have criteria and methodologies distinguishing between oral products, topical products and pharmaceutical products, among others.
In conducting the testing, the compound or product to be evaluated is separated out into individual containers, each being challenged with one of the method-specified microorganisms (S. aureus—ATCC 6538 USP51/EP, E. coli—ATCC 8739 EP, P. aeruginosa—ATCC 9027 USP51/EP, C. albicans—ATCC 10231 USP51/EP, and A. brasiliensis—ATCC 16404 USP51/EP) at a concentration of >1×10^5 CFU/g or ml. The initial concentration of each microorganism is determined by inoculating a control substance and using standard dilution and plating techniques. […] The inoculated broth is held at room temperature and is evaluated at specific intervals. USP-51 evaluates at the 14-day and 28-day intervals. EP evaluates results at 2-day, 7-day, 14-day, and 28-day. […] After a period of incubation (48 hours for bacteria, up to 5 days for yeast and mold) surviving microorganisms are counted, and the log reduction of each microorganism at each interval is reported. […]

[4] = system: A. brasiliensis, C. albicans, E. coli, P. aeruginosa, and S. aureus; assay: Challenge test (USP-51 / European Pharmacopeia) in tryptic soy broth, log reduction of CFU; assay type: cell-based; conditions: tryptic soy broth pH 6.5
Description: as §2
In conducting the testing, the compound or product to be evaluated is separated out into individual containers, each being challenged with one of the method-specified microorganisms (S. aureus—ATCC 6538 USP51/EP, E. coli—ATCC 8739 EP, P. aeruginosa—ATCC 9027 USP51/EP, C. albicans—ATCC 10231 USP51/EP, and A. brasiliensis—ATCC 16404 USP51/EP) at a concentration of >1×10^5 CFU/g or ml. The initial concentration of each microorganism is determined by inoculating a control substance and using standard dilution and plating techniques. […] The inoculated broth is held at room temperature and is evaluated at specific intervals. USP-51 evaluates at the 14-day and 28-day intervals. EP evaluates results at 2-day, 7-day, 14-day, and 28-day. At each contact time, the inoculated product is chemically neutralized and plated using standard dilution and plating techniques. After a period of incubation (48 hours for bacteria, up to 5 days for yeast and mold) surviving microorganisms are counted, and the log reduction of each microorganism at each interval is reported.
For the European Pharmacopeia, a “pass” test for efficacy is a two-log reduction for bacteria after two days, a three-log reduction in bacteria after […], a two-log reduction in mold and yeast at 14 days and no increase at 28 days. For the USP-51, a two-log reduction in bacteria is required at 14 days and no increase at 28 days. For mold and yeast, USP-51 requires no increase at 14 days and 28 days. “No increase” is defined as a […]. […]
The challenge testing was conducted by a Food and Drug Administration (FDA) certified outside testing lab utilizing standard USP-51 and European Pharmacopeia methodologies as summarized in the Challenge Testing Methodology section above. Antimicrobial efficacy was determined in tryptic soy broth growth media, pH-balanced with sodium hydroxide or hydrochloric acid as required to achieve specific pH ranges. […]
The boosting efficacy of various concentrations of EDTA (0 to 0.5 wt. %, with “0” being a control without the EDTA booster) in tryptic soy broth growth media at pH 6.5 was evaluated against various microbes (A. brasiliensis, C. albicans, E. coli, P. aeruginosa, and S. aureus). […]

A. brasiliensis = assay: Challenge test in tryptic soy broth, log reduction of CFU; assay type: cell-based; conditions: with 0.25 wt. % sodium benzoate and 0.25 wt. % benzyl alcohol, 14 and 28 days
Description: as §1
Data was reported at 30 minutes, two days, fourteen days and twenty-eight days.
[…] The data was collected at 30 minutes, two days, fourteen days and twenty-eight days.

[5] = tryptic soy broth pH 8, booster at various concentrations with 0.25 wt. % sodium benzoate and 0.25 wt. % benzyl alcohol

## OCc1ccccc1 [benzyl alcohol, reference compound]
[1]
  antimicrobial effectiveness (log reduction of CFU) compared to control: exactly the same as for benzylamine

## O=C(O)CN(CCN(CC(=O)O)CC(=O)O)CC(=O)O [EDTA, ethylenediaminetetraacetic acid]
[2]; tryptic soy broth pH 6.5, booster 0 to 0.5 wt. % with 0.25 wt. % sodium benzoate and 0.25 wt. % benzyl alcohol, 30 minutes, two, fourteen, twenty-eight days
  antimicrobial performance (log reduction of CFU): improved antimicrobial performance
[2]; tryptic soy broth pH 8.0, booster 0 to 0.5 wt. % with 0.25 wt. % sodium benzoate and 0.25 wt. % benzyl alcohol
  log reduction as a function of booster concentration: increased log reduction with increasing concentrations
[2]; [5]
  antimicrobial performance (log reduction of CFU): improved antimicrobial performance
[3]
  European Pharmacopeia 14-day criteria: met the 14-day criteria
  European Pharmacopeia two-day criteria: met the two-day criteria
Pseudomonas aeruginosa
  activity against Pseudomonas aeruginosa: particularly good activity

## CCCCCCC(O)CO (stereo not drawn) [caprylyl glycol]
[2]; [5]
  antimicrobial performance (log reduction of CFU): improved antimicrobial performance
[2]; tryptic soy broth pH 8, caprylyl glycol up to 5 wt. %, regardless of concentration, 0.25 wt. % sodium benzoate and 0.25 wt. % benzyl alcohol, two days
  two-day log reduction: two-log reduction achieved against all microbes tested
[4]; 1 wt. % booster with 0.25 wt. % sodium benzoate and 0.25 wt. % benzyl alcohol
  antimicrobial boosting potential at lowest use concentration: outstanding antimicrobial boosting potential
[4]; caprylyl glycol up to 5 wt. %, regardless of concentration, 0.25 wt. % sodium benzoate and 0.25 wt. % benzyl alcohol, two days
  two-day log reduction: two-log reduction achieved against all microbes tested
[3]; 0.5 wt. % booster with 0.25 wt. % sodium benzoate and 0.25 wt. % benzyl alcohol
  European Pharmacopeia two-day and 14-day criteria: met the two-day and 14-day criteria

## OCCCc1ccccc1 [3-phenyl propanol]
[3]; 0.35 wt. % booster with 0.25 wt. % sodium benzoate and 0.25 wt. % benzyl alcohol
  European Pharmacopeia two-day and 14-day criteria: met the two-day and 14-day criteria

## NCc1ccccc1 [benzylamine]
[1]
  antimicrobial effectiveness (log reduction of CFU) compared to control: antimicrobial effectiveness achieved

## O=C([O-])[C@H](O)[C@@H](O)[C@H](O)[C@H](O)CO.[Na+] [sodium gluconate]
[2]; [5]
  antimicrobial performance (log reduction of CFU): improved antimicrobial performance
[4]; booster 0 to 0.5 wt. % with 0.25 wt. % sodium benzoate and 0.25 wt. % benzyl alcohol, seen at 14 and 28 days
  log reduction as a function of booster concentration: increased log reduction with increased concentration
[4]; sodium benzoate/benzyl alcohol combination
  booster strength compared with EDTA: not as strong a booster as EDTA
[3]
  European Pharmacopeia 14-day criteria: met the 14-day criteria
  European Pharmacopeia two-day criteria: met the two-day criteria
A. brasiliensis; tryptic soy broth pH 6.5
  activity against the mold A. brasiliensis: Good activity
A. brasiliensis; tryptic soy broth pH 8
  activity against the mold A. brasiliensis: Particularly good activity
